For orientation: IC50 means the concentration at which inhibition is half-maximal.

Experiment [1] concerns BaF3 EML-4-ALK-L1196M cell line. As to the kind of experiment: Cell anti-proliferation test 4 (CCK-8), BaF3 EML-4-ALK-L1196M. Type of experiment: cell-based. As to conditions: Ba/F3 EML4-ALK-L1196M, BaF3 EML-4-ALK-L1196M cells, CCK-8, 72 hours. Here is the method:
BaF3 EML-4-ALK-L1196M cell line, brand: KYinno, article number: KC-0102
Cell Counting Kit-8 (CCK-8), brand: Targetmol, article number: C0005
10 μL of the compound diluted in gradient was added to the cell plate to give final concentrations of the compounds as 500, 166.67, 55.56, 18.52, 6.17, 2.06, 0.69, 0.23 and 0.08 nM. • d.

The target in experiment [2] is EGFR-WT (Homo sapiens (Human), UniProt P00533). As to the kind of experiment: Enzymatic activity test (ADP-Glo) EGFR-WT. Type of experiment: biochemical. As to conditions: kinase. Background: ADP-Glo turns the ADP formed in a reaction into a luminescent signal.

Structures are written as SMILES. Read-outs that look alike come from different tables or passages of the source.

Sequence of EGFR-WT (P00533 25-1210): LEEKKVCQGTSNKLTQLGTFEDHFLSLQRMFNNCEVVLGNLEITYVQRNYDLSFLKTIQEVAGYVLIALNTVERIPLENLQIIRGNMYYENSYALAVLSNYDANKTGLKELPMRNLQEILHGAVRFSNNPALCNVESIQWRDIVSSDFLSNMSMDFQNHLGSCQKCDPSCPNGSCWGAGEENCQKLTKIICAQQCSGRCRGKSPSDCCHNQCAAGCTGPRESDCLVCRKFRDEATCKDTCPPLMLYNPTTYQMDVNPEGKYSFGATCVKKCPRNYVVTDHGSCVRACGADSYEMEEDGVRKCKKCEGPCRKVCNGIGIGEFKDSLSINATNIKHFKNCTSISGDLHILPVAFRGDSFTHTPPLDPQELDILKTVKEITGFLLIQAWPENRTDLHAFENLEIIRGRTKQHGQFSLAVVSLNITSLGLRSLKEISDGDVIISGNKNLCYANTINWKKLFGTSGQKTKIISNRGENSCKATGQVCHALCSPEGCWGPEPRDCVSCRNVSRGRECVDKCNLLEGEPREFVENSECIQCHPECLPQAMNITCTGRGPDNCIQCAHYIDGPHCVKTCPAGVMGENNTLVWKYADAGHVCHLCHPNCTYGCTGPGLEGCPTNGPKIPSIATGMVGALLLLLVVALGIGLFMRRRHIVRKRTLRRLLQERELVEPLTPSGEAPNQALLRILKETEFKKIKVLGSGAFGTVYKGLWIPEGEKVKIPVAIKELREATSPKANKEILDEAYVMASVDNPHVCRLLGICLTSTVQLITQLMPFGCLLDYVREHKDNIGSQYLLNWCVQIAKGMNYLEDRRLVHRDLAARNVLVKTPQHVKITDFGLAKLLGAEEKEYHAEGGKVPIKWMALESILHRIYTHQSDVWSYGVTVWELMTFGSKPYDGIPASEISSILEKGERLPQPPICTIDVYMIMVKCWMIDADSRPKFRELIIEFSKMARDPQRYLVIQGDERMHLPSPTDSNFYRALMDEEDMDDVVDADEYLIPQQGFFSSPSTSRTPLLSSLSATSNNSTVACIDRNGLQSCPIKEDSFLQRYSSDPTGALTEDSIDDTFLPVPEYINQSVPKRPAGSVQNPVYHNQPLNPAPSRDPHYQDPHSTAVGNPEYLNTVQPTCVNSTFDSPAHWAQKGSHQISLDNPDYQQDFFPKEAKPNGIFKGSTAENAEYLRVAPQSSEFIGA

On to `COc1cc(N2CCC(N3CCN(C)CC3)CC2)c(C)cc1Nc1ncc(Br)c(Nc2ccc(C)cc2P(C)(C)=O)n1` [Compound 2], for which the IC50 is 15.1 nM in experiment [1] (first test, read-out: First test IC50) and 10.4 nM in experiment [1] (second test, read-out: Second test IC50). For the compound `COc1cc(N2CCC(N3CCN(C)CC3)CC2)c(Cl)cc1Nc1ncc(Br)c(Nc2ccc(C)cc2P(C)(C)=O)n1` [Compound 14], the IC50 in experiment [2] is 65.9 nM.
